# Structures can show the parent of a compound that is named as a salt.
# Target: T1, human GIRK1/4 channels (Homo sapiens, UniProt P48544+P48549)
# T1 construct: Full-length human GIRK1 cDNA was cloned from HuH cell- and HeLa cell-derived cDNA libraries; Full-length GIRK4 cDNA was amplified from a human heart cDNA library; expressed in transfected cells; host or cells: FLP-IN-CHO cells (Invitrogen)
# T1 sequence (P48549 1-501): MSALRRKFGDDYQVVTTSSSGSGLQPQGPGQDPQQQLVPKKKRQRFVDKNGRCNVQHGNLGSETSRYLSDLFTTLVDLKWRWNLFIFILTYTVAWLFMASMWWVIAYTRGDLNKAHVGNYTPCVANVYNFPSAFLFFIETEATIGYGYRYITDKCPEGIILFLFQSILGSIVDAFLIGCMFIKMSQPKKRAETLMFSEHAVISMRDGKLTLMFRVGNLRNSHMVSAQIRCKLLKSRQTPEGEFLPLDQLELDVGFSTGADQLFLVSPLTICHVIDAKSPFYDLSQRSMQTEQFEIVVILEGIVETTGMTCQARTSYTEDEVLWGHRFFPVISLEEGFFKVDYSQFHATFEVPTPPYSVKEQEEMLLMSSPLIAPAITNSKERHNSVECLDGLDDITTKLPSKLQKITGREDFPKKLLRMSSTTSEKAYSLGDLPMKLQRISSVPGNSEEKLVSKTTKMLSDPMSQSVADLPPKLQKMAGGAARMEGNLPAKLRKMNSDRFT
# T1 sequence (P48544 1-419): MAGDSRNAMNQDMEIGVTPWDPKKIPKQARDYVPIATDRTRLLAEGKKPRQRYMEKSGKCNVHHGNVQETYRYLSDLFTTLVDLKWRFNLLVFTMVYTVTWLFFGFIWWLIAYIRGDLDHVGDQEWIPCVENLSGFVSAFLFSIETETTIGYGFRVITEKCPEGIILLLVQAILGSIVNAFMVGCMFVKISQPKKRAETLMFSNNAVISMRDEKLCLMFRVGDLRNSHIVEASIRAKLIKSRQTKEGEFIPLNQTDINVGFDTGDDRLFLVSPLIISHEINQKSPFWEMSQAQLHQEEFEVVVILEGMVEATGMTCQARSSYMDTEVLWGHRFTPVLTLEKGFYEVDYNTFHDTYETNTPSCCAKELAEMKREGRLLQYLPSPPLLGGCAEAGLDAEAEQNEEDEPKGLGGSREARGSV
# Assay: Measurement of human GIRK1/4 channel current by whole-cell patch clamp method (human GIRK1/4-expressing CHO cell line)
# Format: cell-based
# Conditions: not given
# Protocol: (2) Production of CHO Cell Line Expressing Human GIRK1/4
# CHO cell lines stably expressing human GIRK1/4 channels were prepared in the following manner.
# Full-length human GIRK1 cDNA was cloned from HuH cell- and HeLa cell-derived cDNA libraries. Full-length GIRK4 cDNA was amplified from a human heart cDNA library (produced by Clontech Laboratories, Inc.) by PCR using synthetic primers shown in Table 1, and cloned into the Eco-RI restriction enzyme site of pCR-Blunt (produced by Invitrogen Corporation) or into the HincII site of pUC118 (produced by Takara Bio, Inc.).
# The obtained human GIRK1 and GIRK4 cDNA sequences correspond to known sequences (NCBI database: GIRK1 (NM_002239) and GIRK4 (NM_000890) respectively). The obtained GIRK1 and GIRK4 cDNA sequences were cloned into the Eco-RI restriction enzyme site of pCR-Blunt (available from Invitrogen Corporation) or into the HincII site of pUC118 (available from Takara Bio, Inc.). A GIRK4 expression vector was constructed by insertion into the BamHI-XhoI site of pcDNA5/FRT. A GIRK1 expression vector was constructed by insertion into the KpnI-XhoI site of pcDNA3.1(+) or pCAG_neo. FLP-IN-CHO cells (produced by Invitrogen Corporation) were transfected with human GIRK1 and GIRK4 expression vectors by using Lipofectamine 2000 (produced by Invitrogen Corporation) according to the protocol enclosed with the reagent or using an electronic induction method (“Nucleofector Kit-T”, produced by Amaxa). First, the cells transfected with the GIRK4 expression vector were cultured in a 10% serum-containing F12 medium (produced by Sigma) supplemented with 600 μg/ml of hygromycin in an incubator with 5% carbon dioxide at 37° C. Then the cells expressing GIRK4 were transfected with the GIRK1 expression vector and were cultured in 10% serum-containing F12 medium supplemented with 350 μg/ml of G418 and 600 μg/ml of hygromycin in an incubator with 5% carbon dioxide at 37° C. to select GIRK1/4 expressing cell lines. Cell populations whose growth was observed after about 2 weeks were isolated using cloning rings, and the obtained single colonies were proliferated. RNA was extracted from single colonies, and single-stranded cDNA was synthesized by a cDNA synthesis kit (produced by Invitrogen Corporation), and the amount of expression was quantified at the mRNA level by real-time PCR (Applied Biosystems, Ltd.). Finally, the expressed current was analyzed by patch clamp method described below. The cell lines expressing a current of 500 pA or more per cell were selected as channel-expressing cell lines for activity measurement by patch clamping method.
# (4) Measurement of Ion Channel Current by Patch Clamp Method (Human GIRK1/4-Expressing CHO-K1 Cell Line)
# An experiment was carried out using a patch clamp setup at room temperature (20 to 26° C.). A perfusion chamber having a diameter of 20 mm (flow rate: about 5 ml/min) was mounted on the stage of a phase-contrast inverted microscope (produced by Nikon Corporation) placed on a vibration isolation table. A poly-L-lysine (produced by Sigma)-coated coverslip (diameter: 15 mm, produced by Matsunami Glass Ind., Ltd.) on which human GIRK1/4-expressing cells were cultured was placed in the perfusion chamber.
# Hyperpolarizing stimulation pulses were applied and ionic current was recorded using a patch clamp amplifier (EPC-7 or EPC-7 PLUS, manufactured by HEKA) and a personal computer (manufactured by IBM Corp.) in which software for data acquisition and analysis of ion channel current (PULSE 8.77, manufactured by HEKA) was installed. The current was measured in the whole-cell configuration of the patch-clamp technique. The tip (resistance: 2 to 4 MΩ) of a borosilicate glass pipette (produced by Sutter Instrument Co.) was gently placed on the cell membrane by using a three-dimensional mechanical micromanipulator (produced by Shoshin EM Corporation). […] Subsequently, stronger suction was applied to break the cell membrane. […]
row,SMILES,IC50
1,CCN1C(=O)C(C)(C)C(=O)N(C)c2cc(OCCCN(CCn3ccc4ccccc4c3=O)Cc3ccsc3)ccc21 [Example 125],91 nM

# Same assay, conditions: whole-cell patch clamp, human GIRK1/4-expressing CHO cells; step end current at −120 mV; test compound 0.1, 1, 10 μM; read-out: GIRK¼ IC50
row,SMILES,IC50
1,"CCN1C(=O)C(C)(C)C(=O)N(C)c2cc(OCCCN(CCn3ccc4sccc4c3=O)Cc3cccnc3C)ccc21 [Example 595, 1-ethyl-3,3,5-trimethyl-7-(3-{(2-methylpyridin-3-ylmethyl)-[2-(4-oxo-4H-thieno[3,2-c]pyridin-5-yl)ethyl]-amino}propoxy)-1,5-dihydrobenzo[b][1,4]diazepine-2,4-dione]",790 nM
2,CCN1C(=O)C(C)(C)C(=O)N(C)c2cc(OCCCN(CCn3ccc4ccoc4c3=O)Cc3cccs3)ccc21 [Example 417],980 nM
3,"CCN1C(=O)C(C)(C)C(=O)N(C)c2cc(OCCCN(CCn3ccc4ccoc4c3=O)Cc3ccncc3)ccc21 [Example 31, 1-ethyl-3,3,5-trimethyl-7-(3-{[2-(7-oxo-7H-furo[2,3-c]pyridin-6-yl)ethyl]pyridin-4-ylmethylamino}propoxy)-1,5-dihydrobenzo[b][1,4]diazepine-2,4-dione dihydrochloride]",2900 nM
4,"CCN1C(=O)C(C)(C)C(=O)N(C)c2cc(OCCCN(CCn3ccc4occc4c3=O)Cc3cccnc3C)ccc21 [Example 575, 1-ethyl-3,3,5-trimethyl-7-(3-{(2-methylpyridin-3-ylmethyl)-[2-(4-oxo-4H-furo[3,2-c]pyridin-5-yl)ethyl]-amino}propoxy)-1,5-dihydrobenzo[b][1,4]diazepine-2,4-dione]",500 nM
5,"CCN1C(=O)C(C)(C)C(=O)N(C)c2cc(OCCCN(CCn3c(=O)ccc4ccccc43)Cc3ccncc3)ccc21 [Example 63, 1-ethyl-3,3,5-trimethyl-7-(3-{[2-(2-oxo-2H-quinolin-1-yl)ethyl]pyridin-4-ylmethylamino}propoxy)-1,5-dihydrobenzo[b][1,4]diazepine-2,4-dione]",920 nM
6,"CCN1C(=O)C(C)(C)C(=O)N(C)c2cc(OCCCN(CCn3ccc4sccc4c3=O)Cc3cccnc3)ccc21 [Example 568, 1-ethyl-3,3,5-trimethyl-7-(3-{[2-(4-oxo-4H-thieno[3,2-c]pyridin-5-yl)ethyl]pyridin-3-ylmethylamino}-propoxy)-1,5-dihydrobenzo[b][1,4]diazepine-2,4-dione]",50 nM
7,"CCN1C(=O)C(C)(C)C(=O)N(C)c2cc(OCCCN(CCn3ccc4oc(C)cc4c3=O)Cc3ccncc3)ccc21 [Example 464, 1-ethyl-3,3,5-trimethyl-7-(3-{[2-(2-methyl-4-oxo-4H-furo[3,2-c]pyridin-5-yl)ethyl]pyridin-4-ylmethylamino}propoxy)-1,5-dihydrobenzo[b][1,4]diazepine-2,4-dione dihydrochloride]",3200 nM
8,"CCN1C(=O)C(C)(C)C(=O)N(C)c2cc(OCCCN(CCn3ccc4oc(C)cc4c3=O)Cc3cnccc3C)ccc21 [Example 573, 1-ethyl-3,3,5-trimethyl-7-{3-[[2-(2-methyl-4-oxo-4H-furo[3,2-c]pyridin-5-yl)ethyl]-(4-methylpyridin-3-ylmethyl)amino]propoxy}-1,5-dihydrobenzo[b][1,4]diazepine-2,4-dione]",1500 nM
9,"CCCN1C(=O)C(C)(C)C(=O)N(C)c2cc(OCCCN(CCc3cccnc3)Cc3ccncc3)ccc21 [Example 10, 3,3,5-trimethyl-1-propyl-7-{3-[(2-pyridin-3-ylethyl)pyridin-4-ylmethylamino]propoxy}-1,5-dihydrobenzo[b][1,4]diazepine-2,4-dione trihydrochloride]",3600 nM
10,CCN1C(=O)C(C)(C)C(=O)N(C)c2cc(OCCCN(CCn3ccc4ccccc4c3=O)Cc3ccco3)ccc21 [Example 132],270 nM
11,"CCN1C(=O)C(C)(C)C(=O)N(CC)c2cc(OCCCN(CCc3cccnc3)Cc3ccncc3)ccc21 [Example 14, 1,5-diethyl-3,3-dimethyl-7-{3-[(2-pyridin-3-ylethyl)pyridin-4-ylmethylamino]propoxy}-1,5-dihydrobenzo[b][1,4]diazepine-2,4-dione trihydrochloride]",720 nM
12,CCN1C(=O)C(C)(C)C(=O)N(C)c2cc(OCCCN(CCn3ccc4ccoc4c3=O)Cc3ccccc3C)ccc21 [Example 398],490 nM
13,CCN1C(=O)C(C)(C)C(=O)N(C)c2cc(OCCCN(CCc3cccnc3)Cc3cccc(C#N)c3)ccc21 [Example 229],690 nM
14,"CCCc1ncccc1CN(CCCOc1ccc2c(c1)N(C)C(=O)C(C)(C)C(=O)N2CC)CCn1ccc2oc(C)cc2c1=O [Example 611, 1-ethyl-3,3,5-trimethyl-7-{3-[[2-(2-methyl-4-oxo-4H-furo[3,2-c]pyridin-5-yl)ethyl]-(2-propylpyridin-3-ylmethyl)amino]propoxy}-1,5-dihydrobenzo[b][1,4]diazepine-2,4-dione dihydrochloride]",370 nM
15,CCN1C(=O)C(C)(C)C(=O)N(C)c2cc(OCCCN(CCn3ccc4ccoc4c3=O)Cc3ccc(C(F)(F)F)cc3)ccc21 [Example 395],330 nM
